The target in experiment [1] is T1, MU1 (unidentified, UniProt Z9NE32H8P7).
T1 construct: metagenomic phage display insert in pET-28a(+) (NdeI/XhoI; forward primer in the T7 vector upstream of the insert), N-terminal His6 kept, E. coli BL21(DE3); monomer, ~39 kDa by SEC; GenBank entry within MN313892-MN313895, ON711254-ON711279, not assigned in text
T1 sequence (Z9NE32H8P7 1-238): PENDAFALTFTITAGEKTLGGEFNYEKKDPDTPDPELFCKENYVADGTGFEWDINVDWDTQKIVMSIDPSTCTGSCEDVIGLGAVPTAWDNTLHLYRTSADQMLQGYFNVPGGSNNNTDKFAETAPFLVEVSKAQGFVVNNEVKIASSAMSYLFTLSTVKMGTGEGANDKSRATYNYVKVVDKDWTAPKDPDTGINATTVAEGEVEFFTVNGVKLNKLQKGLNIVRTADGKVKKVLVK
The experiment in a line: isothermal titration calorimetry. Type of experiment: binding, Homo sapiens. The note with it: 20 mM HEPES, 150 mM NaCl, pH 7.5; sequential two-sites model, stronger site. In general terms: Isothermal titration calorimetry measures the heat released or taken up as one component is titrated into another.

The target in experiment [2] is T2, MN3 (unidentified, UniProt Z9ZPU1GRL3).
T2 construct: metagenomic phage display insert in pET-28a(+) (EcoRI/HindIII), N- and C-terminal His6 kept, E. coli BL21(DE3); monomer (~33 kDa) and dimer (~77 kDa); GenBank entry within MN313892-MN313895, ON711254-ON711279, not assigned in text
T2 sequence (Z9ZPU1GRL3 1-298): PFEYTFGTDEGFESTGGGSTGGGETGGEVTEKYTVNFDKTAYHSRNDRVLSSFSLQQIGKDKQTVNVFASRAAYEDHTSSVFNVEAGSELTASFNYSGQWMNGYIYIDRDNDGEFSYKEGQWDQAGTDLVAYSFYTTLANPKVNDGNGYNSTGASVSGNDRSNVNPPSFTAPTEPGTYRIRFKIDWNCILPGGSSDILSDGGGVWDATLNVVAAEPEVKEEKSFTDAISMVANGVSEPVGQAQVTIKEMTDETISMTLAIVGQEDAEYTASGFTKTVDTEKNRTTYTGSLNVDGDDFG
Nature of the experiment: isothermal titration calorimetry. Type of experiment: binding, Homo sapiens. As to conditions: 20 mM HEPES, 150 mM NaCl, pH 7.5; sequential two-sites model, stronger site.

Experiment [3] addresses T3, Fetuin (UniProt P12763 19-359, sialylated).
T3 construct: fetuin, a glycoprotein used as a glycan ligand in calorimetry; also called sialylated fetuin
T3 sequence (looked up): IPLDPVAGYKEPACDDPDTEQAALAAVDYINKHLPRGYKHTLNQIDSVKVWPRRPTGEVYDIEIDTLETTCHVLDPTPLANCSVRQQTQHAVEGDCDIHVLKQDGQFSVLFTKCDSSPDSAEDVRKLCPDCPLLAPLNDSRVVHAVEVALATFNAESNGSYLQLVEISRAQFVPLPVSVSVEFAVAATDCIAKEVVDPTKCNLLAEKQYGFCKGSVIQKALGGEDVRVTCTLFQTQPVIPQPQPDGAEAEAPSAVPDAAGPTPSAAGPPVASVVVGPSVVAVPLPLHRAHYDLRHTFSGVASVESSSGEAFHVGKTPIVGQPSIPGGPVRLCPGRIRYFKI
Nature of the experiment: ITC; VP-ITC; protein in the sample cell, ligand titrated (20 or 35 injections at intervals of 180 s); buffer mostly 20 mM HEPES, 150 mM NaCl, pH 7.5; single run. As to conditions: both partners purified.

In experiment [4] the target is MN3 (human fecal metagenome (organism not identified)). The experiment in a line: SEC; HiPrep 26/60 HR Sephacryl S-200, 150 mM NaCl, 20 mM Tris pH 7.5, mostly 1.0 ml/min. In general terms: Size exclusion chromatography separates by hydrodynamic size, large species first.

What is called Kd is the concentration at which binding is half-saturated. High values mean a looser complex, low ones a tighter complex. On to `C#CCN(C(C)=O)[C@@H]1O[C@H](CO)[C@@H](O[C@@H]2O[C@H](CO)[C@H](O)[C@H](O[C@@H]3O[C@H](CO)[C@@H](O[C@@H]4O[C@H](CO)[C@H](O)[C@H](O)[C@H]4O[C@@H]4O[C@@H](C)[C@@H](O)[C@@H](O)[C@@H]4O)[C@H](O)[C@H]3NC(C)=O)[C@H]2O)[C@H](O)[C@H]1O` [H antigen type-2 pentaose], for which the Kd was 20.8 µM in experiment [1] and 36.8 µM in experiment [2].

B1: MU3 (domain or fragment)
chain: QTPKDVTVVEKYQADGTGFSHTINVDWDKQKIVASIDFSNGGDDKDILAMTTGDSFTAFQTSTYRTMHWYCNQTAKQISGFFAKSGAGNNNTGRIDVADCLAKFEISKAEGLKVNGVVKMTPDALEELLTGDPIIIGSGESPKFSNAFYNYIKVVSLDWKETTEPEVTVKDEKTFNEALYMQDQKVADATVVVKG
In experiment [3], B1 returned a Kd of 239 µM.

B2: MN3 (domain or fragment)
chain: T2 sequence (Z9ZPU1GRL3 1-298)
modifications: not checked
One may read the stoichiometry N as a count of units in the complex or per binding partner. Molecule B2 had a stoichiometry N in experiment [4] of 2.

The values above are taken from paper PMC10076258, “New carbohydrate binding domains identified by phage display based functional metagenomic screens of human gut microbiota” (Communications Biology, 2023).
